Measured values from BindingDB's records for doi:10.7270/Q2M043S8 (University of Pittsburgh, 2006).
pIC50: −log10 of the molar value.

These compounds were tested against T1, Dual specificity protein phosphatase 6 (Rattus norvegicus, UniProt Q64346) (assay: MKP-3 phosphatase inhibition with catalase present, dose response, biochemical, rat DUSP6, catalase added, probe assessment (AID 564)).
T1 sequence (Q64346 whole entry): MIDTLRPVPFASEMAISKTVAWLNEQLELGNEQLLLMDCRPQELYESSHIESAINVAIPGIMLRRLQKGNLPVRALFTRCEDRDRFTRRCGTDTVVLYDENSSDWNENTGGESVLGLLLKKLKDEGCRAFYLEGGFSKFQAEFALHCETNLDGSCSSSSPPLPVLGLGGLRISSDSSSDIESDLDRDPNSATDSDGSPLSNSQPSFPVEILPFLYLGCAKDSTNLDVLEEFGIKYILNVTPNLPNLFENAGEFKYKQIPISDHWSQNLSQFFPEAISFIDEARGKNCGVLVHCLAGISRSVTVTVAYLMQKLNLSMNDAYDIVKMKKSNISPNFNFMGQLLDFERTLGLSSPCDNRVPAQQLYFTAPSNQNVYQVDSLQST

`Cc1cccc(N2CCN(C(=O)Cc3c(C(=O)O)[nH]c4ccc(Cl)cc34)CC2)c1C` [5-chloranyl-3-[2-[4-(2,3-dimethylphenyl)piperazin-1-yl]-2-oxidanylidene-ethyl]-1H-indole-2-carboxylic acid] and `Cc1cc(C)n2c(SCC(=O)N3CCN(S(=O)(=O)c4ccc(Cl)cc4)CC3)nnc2n1` [1-[4-(4-chlorophenyl)sulfonyl-1-piperazinyl]-2-[(5,7-dimethyl-[1,2,4]triazolo[4,3-a]pyrimidin-3-yl)thio]ethanone] cannot be ordered by pIC50: less than 4.30 for the first, less than 4.30 for the second.

`O=C1C=C(NCc2ccc(Cl)c(Cl)c2)CC1` [3-[(3,4-dichlorobenzyl)amino]cyclopent-2-en-1-one] and `COC(=O)c1ccccc1NC(=O)CN1C(=O)C2CCCN2c2ncc(Cl)cc21` (configuration not stated) [MLS000094302] cannot be ordered by pIC50: less than 4.30 for the first, less than 4.30 for the second.

`O=C(Nc1ccccc1)c1ccc2nc(-c3ccco3)c(-c3ccco3)nc2c1` [2,3-di-2-furyl-N-phenyl-6-quinoxalinecarboxamide] and `O=C(Nc1ccc2nc(-c3ccco3)c(-c3ccco3)nc2c1)N1CCCCCC1` cannot be ordered by pIC50: less than 4.30 for the first, less than 4.30 for the second.

`Cc1nc2c(C(=O)NCCC3=CCCCC3)c[nH]n2c(=O)c1Cl` [6-chloro-N-(2-cyclohex-1-en-1-ylethyl)-7-hydroxy-5-methylpyrazolo[1,5-a]pyrimidine-3-carboxamide] and `CC(C)Sc1nc2sc3c(c2c2nnc(SCC(=O)NCc4ccco4)n12)CCCC3` [MLS000082957] cannot be ordered by pIC50: less than 4.30 for the first, less than 4.30 for the second.

`[O-]/[N+](=C\c1ccc(OC(F)F)cc1)c1ccccc1` [1-[4-(difluoromethoxy)phenyl]-N-phenylmethanimine oxide] and `[O-]/[N+](=C/c1ccc(F)cc1)c1ccccc1` [(E)-(4-fluorobenzylidene)(phenyl)azane oxide] cannot be ordered by pIC50: less than 4.30 for the first, less than 4.30 for the second.

`COc1ccc(-n2c(NC(=O)c3ccco3)c(C#N)c3nc4ccccc4nc32)cc1` [MLS000079925] and `N#Cc1c(NC(=O)c2ccc(Br)o2)n(-c2ccccc2)c2nc3ccccc3nc12` [5-bromanyl-N-(3-cyano-1-phenyl-pyrrolo[3,2-b]quinoxalin-2-yl)furan-2-carboxamide] cannot be ordered by pIC50: less than 4.30 for the first, less than 4.30 for the second.

`FC(F)(F)c1ccc(N2CCOCC2)c(Nc2nc3ccccc3n3cnnc23)c1` [MLS000093276] and `CCc1ccc(NC(=O)CSc2nc3ccccc3c(=O)n2CCN2CCOCC2)cc1` [MLS000095236] cannot be ordered by pIC50: less than 4.30 for the first, less than 4.30 for the second.

`Cc1cc(NC(=O)c2ccc(S(=O)(=O)N3CCCC3)cc2)nc2c1c(=O)oc1ccccc12` [MLS000091355] and `Cc1c(N=c2c(=O)c3ccccc3c2=O)c(=O)n(-c2ccccc2)n1C` [MLS000105950] cannot be ordered by pIC50: less than 4.30 for the first, less than 4.30 for the second.

`CCOC(=O)c1ccc2c(c1)C1C=CCC1C(C(=O)O)N2` (configuration not stated) [MLS-0025126.0001] and `O=C(OC1CCCCC1)c1ccc2c(c1)C1C=CCC1C(C(=O)O)N2` (configuration not stated) [SMR000019385] cannot be ordered by pIC50: less than 4.30 for the first, less than 4.30 for the second.

`Nc1c(N2CCCC2)cc(Cl)c2nonc12` [(7-chloro-5-pyrrolidino-benzofurazan-4-yl)amine] and `N#Cc1c(N2CCCC2)nc(N)c2c(N)nc(N3CCCC3)cc12` [SMR000061605] cannot be ordered by pIC50: less than 4.30 for the first, less than 4.30 for the second.

`CCOc1ccc2noc3c2c1C(=O)c1ccccc1-3` [MLS000106837] and `COc1ccc2noc3c2c1C(=O)c1ccccc1-3` [MLS000106874] cannot be ordered by pIC50: less than 4.30 for the first, less than 4.30 for the second.

`CCn1nc(-c2cccs2)nc2c(=O)n(C)c(=O)nc1-2` [1-ethyl-6-methyl-3-thiophen-2-yl-pyrimido[5,4-e][1,2,4]triazine-5,7-dione] and `CCn1nc(-c2ccccc2)nc2c(=O)n(C)c(=O)nc1-2` [1-Ethyl-6-methyl-3-phenyl-1H-pyrimido[5,4-e][1,2,4]triazine-5,7-dione] cannot be ordered by pIC50: less than 4.30 for the first, less than 4.30 for the second.

`CCCSc1nnc(NC(=O)c2sc3nc(-c4cccs4)ccc3c2N)s1` [3-amino-N-(5-propylsulfanyl-1,3,4-thiadiazol-2-yl)-6-thiophen-2-ylthieno[2,3-b]pyridine-2-carboxamide] and `Cc1ccc(-c2csc(NC(=O)c3ccno3)n2)cc1` [MLS000081820] cannot be ordered by pIC50: less than 4.30 for the first, less than 4.30 for the second.

`COc1cc(/C=C(/C#N)c2ccc(F)cc2)ccc1OCc1ccc(C(=O)O)o1` [5-({4-[2-cyano-2-(4-fluorophenyl)vinyl]-2-methoxyphenoxy}methyl)-2-furoic acid] and `CCOc1cc(/C=C(/C#N)c2ccc(F)cc2)ccc1OCc1ccc(C(=O)O)o1` [5-[[4-[(E)-2-cyano-2-(4-fluorophenyl)ethenyl]-2-ethoxyphenoxy]methyl]furan-2-carboxylic acid] cannot be ordered by pIC50: less than 4.30 for the first, less than 4.30 for the second.

`Cc1ccc(C)n1-c1cccc(C(=O)O)c1` and `O=C(NC1(O)C(=O)c2ccccc2C1=O)c1ccccc1` [N-(2-hydroxy-1,3-dioxo-2-indenyl)benzamide] cannot be ordered by pIC50: less than 4.30 for the first, less than 4.30 for the second.

`Cc1nc2cc(-c3cccc(F)c3)nn2c(C)c1CCC(=O)N1CCC2(CC1)OCCO2` [1-(1,4-dioxa-8-azaspiro[4.5]decan-8-yl)-3-[2-(3-fluorophenyl)-5,7-dimethyl-6-pyrazolo[1,5-a]pyrimidinyl]-1-propanone] and `CCOc1ccc(-c2cc3nc(C4CCN(C(=O)OC(C)(C)C)CC4)c(C(=O)O)cn3n2)cc1` [2-(4-ethoxyphenyl)-5-[1-[(2-methylpropan-2-yl)oxy-oxomethyl]-4-piperidinyl]-6-pyrazolo[1,5-a]pyrimidinecarboxylic acid] cannot be ordered by pIC50: less than 4.30 for the first, less than 4.30 for the second.

`CCCCCNC(=O)c1ccc2c(=O)[nH]c3c(C(=O)NCC4CCCO4)sc(=S)n3c2c1` (configuration not stated) [5-oxo-N3-(2-oxolanylmethyl)-N8-pentyl-1-sulfanylidene-4H-thiazolo[3,4-a]quinazoline-3,8-dicarboxamide] and `CCCCNC(=O)c1c(N)n(CCCOC)c2nc3ccccc3nc12` [2-amino-N-butyl-1-(3-methoxypropyl)-3-pyrrolo[3,2-b]quinoxalinecarboxamide] cannot be ordered by pIC50: less than 4.30 for the first, less than 4.30 for the second.

`O=C1C=Cc2ccccc2C1=O` [1,2-dihydronaphthalene-1,2-dione] and `O=C1C(=C2C(=O)c3ccccc3C2=O)Nc2ccccc21` [MLS000071738] cannot be ordered by pIC50: less than 4.30 for the first, less than 4.30 for the second.

`CC1=C(/C=C/C(C)=C/C=C/C(C)=C/C(=O)O)C(C)(C)CCC1` [ALL-TRANS-RETINOIC ACID] and `COc1ccc(-c2cc3nc(C4CCN(C(=O)OC(C)(C)C)CC4)c(C(=O)O)cn3n2)cc1` [2-(4-methoxyphenyl)-5-[1-[(2-methylpropan-2-yl)oxy-oxomethyl]-4-piperidinyl]-6-pyrazolo[1,5-a]pyrimidinecarboxylic acid] cannot be ordered by pIC50: less than 4.30 for the first, less than 4.30 for the second.

`CC(C)Cn1c(N)c(C(=O)COC(=O)c2cc(-c3ccco3)nc3ccccc23)c(=O)n(C)c1=O` [2-(2-furanyl)-4-quinolinecarboxylic acid [2-[4-amino-1-methyl-3-(2-methylpropyl)-2,6-dioxo-5-pyrimidinyl]-2-oxoethyl] ester] and `CCn1c(SCC(=O)Nc2ccc3c(c2)c2ccccc2n3CC)nnc1-c1ccco1` [MLS000050867] cannot be ordered by pIC50: less than 4.30 for the first, less than 4.30 for the second.

`CCCCn1c(SCC(=O)c2ccc(OC)cc2OC)nc2cc(S(N)(=O)=O)ccc21` [1-butyl-2-[2-(2,4-dimethoxyphenyl)-2-oxidanylidene-ethyl]sulfanyl-benzimidazole-5-sulfonamide] and `COCCCn1c(N)c(C(=O)NCCC(C)C)c2nc3ccccc3nc21` [MLS000041744] cannot be ordered by pIC50: less than 4.30 for the first, less than 4.30 for the second.

Compared with `Cc1ccc(/C=C/C2=Cc3c(sc(NC(=O)CSc4nnc(N)[nH]4)c3C#N)C(C)(C)C2)o1` [2-[(5-azanyl-1H-1,2,4-triazol-3-yl)sulfanyl]-N-[3-cyano-7,7-dimethyl-5-[(E)-2-(5-methylfuran-2-yl)ethenyl]-6H-1-benzothiophen-2-yl]ethanamide], `N#Cc1c(N)sc(=S)c2c1CCN(Cc1ccccc1)C2` [3-Amino-7-benzyl-1-thioxo-5,6,7,8-tetrahydro-1H-thiopyrano[3,4-c]pyridine-4-carbonitrile] is higher in pIC50: less than 4.30 for the first, 4.32 for the second. The second is the more potent here.

`CC(=O)[C@@H]1[C@@H]2C(=O)N(c3ccc(F)c(Cl)c3)C(=O)[C@@H]2C2c3ccccc3C=CN21` (some centres not stated) [MLS000040594] and `O=C1Nc2ccccc2SC(c2ccccc2)C1O` (configuration not stated) [3-hydroxy-2-phenyl-2,3-dihydro-1,5-benzothiazepin-4(5H)-one] cannot be ordered by pIC50: less than 4.30 for the first, less than 4.30 for the second.

Going from `CCCCn1c(NC(=O)c2ccccc2)c(C#N)c2nc3ccccc3nc21` [SMR000060333] to `COc1ccc(Cn2c(C)nc3c(c2=O)c2nc4ccccc4nc2n3Cc2ccco2)cc1` [MLS000079944], the pIC50 rises from less than 4.30 to 4.32. The second is the more potent here.

`Cn1ncnc2c(=O)n(C)c(=O)nc1-2` and `COc1ccc(Br)cc1C=c1sc2nc(-c3ccco3)nn2c1=O` [5-[(5-bromanyl-2-methoxy-phenyl)methylidene]-2-(furan-2-yl)-[1,3]thiazolo[3,2-b][1,2,4]triazol-6-one] cannot be ordered by pIC50: less than 4.30 for the first, less than 4.30 for the second.

`CCCCCC#CCC#CCC#CCC#CCCCC(=O)O` and `Cc1cccc(NC(=O)c2cc(NC(=O)C3CCCCC3C(=O)O)ccc2N2CCCCC2)c1` (configuration not stated) [2-({[3-{[(3-methylphenyl)amino]carbonyl}-4-(1-piperidinyl)phenyl]amino}carbonyl)cyclohexanecarboxylic acid] cannot be ordered by pIC50: less than 4.30 for the first, less than 4.30 for the second.

Going from `CC(C)(C)N1C(=O)Cc2c1nc(N)c1c(N)nc(N3CCCCC3CO)c(C#N)c21` (configuration not stated) [5,6-bis(azanyl)-3-tert-butyl-8-[2-(hydroxymethyl)piperidin-1-yl]-2-oxidanylidene-1H-pyrrolo[2,3-c][2,7]naphthyridine-9-carbonitrile] to `O=C1c2ccccc2-c2onc3ccc(NCCCn4ccnc4)c1c23` [SMR000044769], the pIC50 rises from less than 4.30 to 4.32.

`O=C(c1cccs1)c1no[n+]([O-])c1C(=O)c1cccs1` [(5-oxidanidyl-4-thiophen-2-ylcarbonyl-1,2,5-oxadiazol-5-ium-3-yl)-thiophen-2-yl-methanone] and `[O-]/[N+](=C\c1ccncc1)c1ccccc1` cannot be ordered by pIC50: less than 4.30 for the first, less than 4.30 for the second.

`Nc1nc2c(s1)CCc1c-2cnn1-c1ccccc1` [MLS000085948] was tested, and the pIC50 was less than 4.30.
